Laboratory results reported in EP1097956A1, “Low endocrine disruptor polycarbonate resin” (Mitsubishi Gas Chemical Company, Inc., priority 1999, dated 2001).

System: pregnant mice
Test: not given
Details: 2 and 20 µg/kg/day dosed orally to pregnant mice; cited from earlier work
In the case of `CC(C)(c1ccc(O)cc1)c1ccc(O)cc1` [BPA, 2,2-bis(4-hydroxyphenyl) propane], the “efficiency of sperm production in male offspring” value is given as “decrease in the efficiency of sperm production” and the “prostate weights in male offspring” value is given as “increase in prostate weights”.

System: rat
Test: not given
Details: cited from earlier work
In the case of `CC(C)(c1ccc(O)cc1)c1ccc(O)cc1` [BPA, 2,2-bis(4-hydroxyphenyl) propane], the “dosage by which the action like the female hormone was developed” value is given as 800 mg/kg/day.

Target: T1, estrogen receptor (Rattus norvegicus, UniProt P06211)
T1 construct: from tissue; host or cells: uterus of matured female rat, homogenate supernatant (105,000 x G)
T1 sequence (P06211 1-600): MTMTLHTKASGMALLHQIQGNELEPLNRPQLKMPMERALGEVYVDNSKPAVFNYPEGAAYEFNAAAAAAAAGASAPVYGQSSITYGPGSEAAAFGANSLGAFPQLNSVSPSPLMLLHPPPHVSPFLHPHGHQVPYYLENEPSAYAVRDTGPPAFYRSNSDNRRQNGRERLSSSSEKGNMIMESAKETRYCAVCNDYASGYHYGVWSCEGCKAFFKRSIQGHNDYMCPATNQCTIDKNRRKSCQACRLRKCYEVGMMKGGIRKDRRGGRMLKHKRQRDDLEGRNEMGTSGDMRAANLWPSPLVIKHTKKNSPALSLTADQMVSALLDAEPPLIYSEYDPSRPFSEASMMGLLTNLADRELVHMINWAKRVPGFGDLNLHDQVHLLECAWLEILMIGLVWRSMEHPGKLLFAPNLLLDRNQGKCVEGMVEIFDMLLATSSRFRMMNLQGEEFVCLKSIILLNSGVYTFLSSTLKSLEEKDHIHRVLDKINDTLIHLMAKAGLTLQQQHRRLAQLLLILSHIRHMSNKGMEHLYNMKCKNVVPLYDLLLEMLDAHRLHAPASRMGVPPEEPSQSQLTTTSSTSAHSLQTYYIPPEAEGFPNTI
Test: estrogen receptor affinity by exchange curve method ([3H]-estradiol displacement, membrane specimen from rat uterus)
Assay type: binding
Details: IC50, evaluated sample itself (bisphenols, phenols); concentration necessary to exchange 50% of estrogen bound receptor
Source text: The smaller the numeral value, the higher is affinity between a chemical substance and estrogen receptor, i.e., the higher is so-called endocrine disruptor. […]
Appendix J and "Medication receptor" P33-34, edited by Kazunari Takayanagi, Nanzando in Japan.
Firstly, a matured female rat was butchered and then its uterus was taken out. Then, fatty portions adhered to tissue portion of the uterus were removed and the uterus removed fatty portions was weighed and then placed in ice. The tissue was sliced so as to form a corner of 1 to 2 mm and. The sliced tissue was put in a Polytron homogenizer cooled in advance in ice and ice cooled TEDG buffer solution (10 mM tris·HCl((pH 7.6), 1.5 mM EDTA, 1 mM DTT and 10 % Glycerol) of 1.0 ml per 50 mg of tissue was added therein and homogenized for 5 seconds. The homogenate was put in a centrifugal tube cooled in advance and centrifuged for 60 minutes at 105,000×G(gravitational unit), whereby a supernatant liquid was obtained as a membrane specimen containing estrogen receptor.
Each the reaction solution thus prepared was vacuum dried and then placed in ice.
1 ml of the above-prepared supernatant liquid of homoginate containing estrogen receptor was added to each tube and softly stirred and then each tube was capped to incubate at 4 °C for 20 hours. Each mixed solution was poured on a filter attached a glass filter paper and aspiration filtered and then the glass filter paper was rinsed with an ice cooled rinsing buffer solution (50 mM Tris·HCl (pH7.6)). Each the glass filter paper was dried and then each radioactivity was measured with a liquid scintillation counter.
Work on `Cc1cc(C2(c3ccc(O)c(C)c3)c3ccccc3-c3ccccc32)ccc1O` [BCFL, 9,9-bis(3-methyl-4-hydroxyphenyl) fluorene] yielded an IC50 greater than 264 µM. `CCCCCCCCCc1ccc(O)cc1` [NP, 4-nonylphenol] showed an IC50 of 4.08 µM. In the case of `CC(C)(c1ccc(O)cc1)c1cccc(C(C)(C)c2ccc(O)cc2)c1` [BPM, 4,4'-[1,3-phenylenebis(1-methylethylidene)] bisphenol], the IC50 is reported as less than 0.289 µM. In the case of `CC1CC(C)(C)CC(c2ccc(O)cc2)(c2ccc(O)cc2)C1` (centres unmarked) [TMBPZ, 3,3,5-trimethyl-1,1-bis(4-hydroxyphenyl)cyclohexane], the IC50 is reported as less than 0.322 µM. Compound `C=C(CC(C)(C)c1ccc(O)cc1)c1ccc(O)cc1` [PIPLD, 4-methyl-2,4-bis(4-hydroxyphenyl)-1-pentene] has an IC50 of less than 0.373 µM. With `Oc1ccc(C(c2ccccc2)(c2ccccc2)c2ccc(O)cc2)cc1` [BPBP, bis(4-hydroxyphenyl)diphenyl methane] the IC50 was 6.53 µM. `Oc1ccc(C2(c3ccc(O)cc3)CCCCC2)cc1` [BPZ, 1,1-bis(4-hydroxyphenyl) cyclohexane] gave an IC50 of less than 0.373 µM. For `CC(C)(C)c1ccc(O)cc1` [p-t-butyl phenol], the IC50 was 173 µM.

Same assay, conditions: evaluated sample itself (bisphenols, phenols); concentration necessary to exchange 50% of estrogen bound receptor; read-out: IC50 (converted)
`Oc1ccc(Cc2ccc(O)cc2)cc1` [BPF, bis(4-hydroxyphenyl)methane] gave an IC50 of 6.99 µM. For `Oc1ccc(Sc2ccc(O)cc2)cc1` [TDP, bis(4-hydroxyphenyl) sulfide], the IC50 was less than 0.458 µM. `CC1(C)CC2(CC(C)(C)c3ccc(O)cc32)c2cc(O)ccc21` [SPI, 6,6'-dihydroxy-3,3,3',3'-tetramethyl-1, 1'-spiro biindan] gave an IC50 of 2.92 µM. In the case of `CC(C)(c1ccc(O)cc1)c1ccc(O)cc1` [BPA, 2,2-bis(4-hydroxyphenyl) propane], the IC50 is reported as 32 µM. For `Oc1ccc(C2(c3ccc(O)cc3)c3ccccc3-c3ccccc32)cc1` [BPFL, 9,9-bis(4-hydroxyphenyl) fluorene], the IC50 was less than 8.85 µM. Work on `Cc1cc(C2(c3cc(C)c(O)c(C)c3)c3ccccc3-c3ccccc32)cc(C)c1O` [BXFL, 9,9-bis(4-hydroxy-3,5-dimethylphenyl) fluorene] yielded an IC50 of less than 4.18 µM. In the case of `CC(c1ccccc1)(c1ccc(O)cc1)c1ccc(O)cc1` [BPAP, 1,1-bis(4-hydroxyphenyl)-1-phenylethane], the IC50 is reported as 1.72 µM. `Oc1ccc(C(c2ccc(O)cc2)(C(F)(F)F)C(F)(F)F)cc1` [BPAF, 2,2-bis(4-hydroxyphenyl) hexafluoropropane] gave an IC50 of less than 0.297 µM.

System: not given
Test: not given
Details: stipulated by the U. S. Environmental Protection Agency and the Japanese Ministry of Health and Welfare; cited from earlier work
In the case of `CC(C)(c1ccc(O)cc1)c1ccc(O)cc1` [BPA, 2,2-bis(4-hydroxyphenyl) propane], the acceptabel daily intake is listed as 50 µg/kg/day.
